Measurements reported in ChEMBL document CHEMBL1909046, “DrugMatrix in vitro pharmacology data”.

Assays:
[1] = biological target: Beta-1 adrenergic receptor (Homo sapiens, UniProt P08588); test: DRUGMATRIX: Adrenergic beta1 radioligand binding (ligand: [125I] Cyanopindolol); type: cell membranes, CHO-K1, Membrane; details: cho-k1; Not Active = under 50% inhibition at 10 µM
[2] = DRUGMATRIX: Sigma2 radioligand binding (ligand: [3H] Ifenprodil); type: cell membranes, Rattus norvegicus, Wistar, Brain, Membrane; details: Not Active = under 50% inhibition at 10 µM
[3] = biological target: T1, Muscarinic acetylcholine receptor M2 (Homo sapiens, UniProt P08172); type: cell membranes, CHO-K1, Membrane; details: cho-k1; also: in other assays of this panel Not Active means under 50% inhibition at 10 µM
T1 sequence (P08172 whole entry): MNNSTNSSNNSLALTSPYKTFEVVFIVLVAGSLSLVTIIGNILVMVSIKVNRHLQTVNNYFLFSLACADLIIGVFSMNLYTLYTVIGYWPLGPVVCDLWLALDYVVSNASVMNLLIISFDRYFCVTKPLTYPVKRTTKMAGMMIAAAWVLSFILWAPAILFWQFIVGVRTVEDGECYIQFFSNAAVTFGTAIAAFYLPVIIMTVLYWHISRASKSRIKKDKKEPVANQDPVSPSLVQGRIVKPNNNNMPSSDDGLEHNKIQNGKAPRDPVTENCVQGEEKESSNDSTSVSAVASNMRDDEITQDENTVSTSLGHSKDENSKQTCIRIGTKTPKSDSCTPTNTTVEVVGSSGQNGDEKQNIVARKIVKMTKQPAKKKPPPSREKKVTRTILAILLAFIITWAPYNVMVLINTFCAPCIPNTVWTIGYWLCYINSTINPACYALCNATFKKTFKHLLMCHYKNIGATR

[4] = DRUGMATRIX: Phorbol Ester radioligand binding (ligand: [3H] PDBu); type: cell membranes, Mus musculus, ICR, Brain, Membrane; details: Not Active = under 50% inhibition at 10 µM
Cytochrome P450 2C9 = Cytochrome P450 2C9 (Homo sapiens, UniProt P11712); details: bti-tn-5b1-4; also: in other assays of this panel Not Active means under 50% inhibition at 10 µM
Cytochrome P450 3A4 = Cytochrome P450 3A4 (Homo sapiens, UniProt P08684); details: bti-tn-5b1-4; also: in other assays of this panel Not Active means under 50% inhibition at 10 µM
Chain of Cytochrome P450 3A4 (P08684 whole entry): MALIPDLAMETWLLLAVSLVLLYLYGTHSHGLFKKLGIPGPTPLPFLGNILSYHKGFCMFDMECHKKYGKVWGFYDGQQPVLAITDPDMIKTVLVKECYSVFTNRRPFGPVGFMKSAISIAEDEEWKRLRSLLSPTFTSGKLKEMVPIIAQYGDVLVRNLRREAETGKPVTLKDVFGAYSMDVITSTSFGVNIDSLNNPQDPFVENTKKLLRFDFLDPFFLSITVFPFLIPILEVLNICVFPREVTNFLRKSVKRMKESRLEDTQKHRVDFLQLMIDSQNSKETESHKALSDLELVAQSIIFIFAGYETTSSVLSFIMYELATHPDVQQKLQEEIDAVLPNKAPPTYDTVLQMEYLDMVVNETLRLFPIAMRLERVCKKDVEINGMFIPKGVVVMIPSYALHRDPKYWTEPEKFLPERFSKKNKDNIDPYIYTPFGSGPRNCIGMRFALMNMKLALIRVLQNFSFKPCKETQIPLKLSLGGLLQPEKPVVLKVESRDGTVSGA

Chain of Cytochrome P450 2C9 (P11712 whole entry): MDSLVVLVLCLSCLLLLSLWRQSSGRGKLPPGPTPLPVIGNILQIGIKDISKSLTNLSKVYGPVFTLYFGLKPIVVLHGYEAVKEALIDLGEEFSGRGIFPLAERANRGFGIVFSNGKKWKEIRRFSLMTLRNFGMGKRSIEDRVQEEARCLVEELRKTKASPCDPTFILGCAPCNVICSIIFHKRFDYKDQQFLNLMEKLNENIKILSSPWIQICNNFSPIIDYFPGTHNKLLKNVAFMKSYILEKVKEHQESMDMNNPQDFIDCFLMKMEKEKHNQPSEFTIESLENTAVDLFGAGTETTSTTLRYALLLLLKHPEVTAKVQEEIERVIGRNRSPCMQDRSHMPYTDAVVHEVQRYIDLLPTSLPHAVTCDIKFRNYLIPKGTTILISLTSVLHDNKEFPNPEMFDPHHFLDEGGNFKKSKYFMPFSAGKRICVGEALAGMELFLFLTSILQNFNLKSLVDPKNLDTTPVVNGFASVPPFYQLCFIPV
Chain of Beta-1 adrenergic receptor (P08588 whole entry): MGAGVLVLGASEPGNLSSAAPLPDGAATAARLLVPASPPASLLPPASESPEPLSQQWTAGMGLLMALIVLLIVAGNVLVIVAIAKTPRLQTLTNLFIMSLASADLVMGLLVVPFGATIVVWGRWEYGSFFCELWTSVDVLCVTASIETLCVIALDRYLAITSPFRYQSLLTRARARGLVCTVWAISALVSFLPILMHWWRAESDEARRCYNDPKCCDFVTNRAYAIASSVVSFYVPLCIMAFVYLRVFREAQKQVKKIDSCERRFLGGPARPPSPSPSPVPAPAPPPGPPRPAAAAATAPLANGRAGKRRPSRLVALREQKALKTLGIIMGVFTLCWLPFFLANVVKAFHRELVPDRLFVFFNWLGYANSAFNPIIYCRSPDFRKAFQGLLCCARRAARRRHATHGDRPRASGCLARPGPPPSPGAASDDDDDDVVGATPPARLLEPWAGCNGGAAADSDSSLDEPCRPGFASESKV

CC1CC(OC(=O)C(O)c2ccccc2)CC(C)(C)C1 (stereo not given) [CYCLANDELATE]
Not Active: IC50 [1] | IC50 [2] | Ki [2] | IC50 [3] | IC50 [4] | Ki [4] | IC50 (Cytochrome P450 2C9) | Ki (Cytochrome P450 2C9) | IC50 (Cytochrome P450 3A4) | Ki (Cytochrome P450 3A4)

Cc1ccc(-c2cc(C(F)(F)F)nn2-c2ccc(S(N)(=O)=O)cc2)cc1 [CELECOXIB]
Not Active: IC50 [1] | IC50 [2] | Ki [2] | IC50 [3] | IC50 [4] | Ki [4] | IC50 (Cytochrome P450 2C9) | Ki (Cytochrome P450 2C9) | IC50 (Cytochrome P450 3A4) | Ki (Cytochrome P450 3A4)

c1ccc(Nc2ccc(Nc3ccccc3)cc2)cc1
Not Active: IC50 [1] | IC50 [2] | Ki [2] | IC50 [3] | IC50 [4] | Ki [4] | IC50 (Cytochrome P450 2C9) | Ki (Cytochrome P450 2C9) | IC50 (Cytochrome P450 3A4) | Ki (Cytochrome P450 3A4)

CC1=C2C(=CO[C@H](C)[C@H]2C)C(O)=C(C(=O)O)C1=O [CITRININ]
Not Active: IC50 [1] | IC50 [2] | Ki [2] | IC50 [3] | IC50 [4] | Ki [4] | IC50 (Cytochrome P450 2C9) | Ki (Cytochrome P450 2C9) | IC50 (Cytochrome P450 3A4) | Ki (Cytochrome P450 3A4)

CC(C)C(=O)Nc1ccc([N+](=O)[O-])c(C(F)(F)F)c1 [FLUTAMIDE]
Not Active: IC50 [1] | IC50 [2] | Ki [2] | IC50 [3] | IC50 [4] | Ki [4] | IC50 (Cytochrome P450 2C9) | Ki (Cytochrome P450 2C9) | IC50 (Cytochrome P450 3A4) | Ki (Cytochrome P450 3A4)

CC[C@@]1(O)C[C@H](O[C@H]2C[C@H](N(C)C)[C@H](O[C@H]3C[C@H](O)[C@H](O[C@H]4CCC(=O)[C@H](C)O4)[C@H](C)O3)[C@H](C)O2)c2c(cc3c(c2O)C(=O)c2c(O)cccc2C3=O)[C@H]1C(=O)OC [ACLARUBICIN]
Not Active: IC50 [1] | IC50 [2] | Ki [2] | IC50 [3] | IC50 [4] | Ki [4] | IC50 (Cytochrome P450 2C9) | Ki (Cytochrome P450 2C9) | IC50 (Cytochrome P450 3A4) | Ki (Cytochrome P450 3A4)

Nc1nc2c(ncn2CCC(CO)CO)c(=O)[nH]1 [PENCICLOVIR]
Not Active: IC50 [1] | IC50 [2] | Ki [2] | IC50 [3] | IC50 [4] | Ki [4] | IC50 (Cytochrome P450 2C9) | Ki (Cytochrome P450 2C9) | IC50 (Cytochrome P450 3A4) | Ki (Cytochrome P450 3A4)
